For the test, the system named is JA 657 chicks. Put plainly: Chick sleep/sedation test (IM injection, 90 minute observation). In kind it is in vivo. Conditions: for Sed (sedation time as % of the period) / TA (time to torpor between injection and first stage of sleep) / TS (duration of the first sleep) / Tsed (total sedation time over the period): 90 min observation; for TS (mins) Placebo diff'ce: extension of first sleep compared with test controls. As to the method:
The dihydroimidazo[5,1-a]-β-carboline derivatives of the invention, in particular those in the form of the methyl sulfonate, (soluble), were tested in chicks, and certain compounds that were active in the chick were administered in single doses to six Beagle dogs of both sexes for a polysomnographic study of at least 4 hours duration.
JA 657 chicks from Couvoir Gauguet, 44 Le Pin, were accustomed for at least 6 days to an alternating program of light and darkness with 12 hours of daylight and 12 hours of darkness at a regulated temperature of 25±2° C. They were fed ad libitum and were placed under test compounds in a vivarium in groups of 3 individuals with a mean weight of 100±10 g on the day of the test. At that age in this species, there is no effective meningeal (hemato-encephalic) barrier. The test products were injected in 3 doses (1, 3 and 10 mg/kg) intramuscularly (IM) in solution or in an aqueous suspension (1 drop of Tween 80 per ml), each to two batches of 3 chicks which were observed over 90 minutes. For each test series (18 vivaria), there was at least one batch of negative control chicks receiving the same volume (0.2 ml IM) of water for injectable preparations.
During the 90 minute observation period, the chicks were strongly stimulated every 15 minutes by presenting a full feeding trough, and each 5 minute period was given a grade from among the following 5 states, corresponding to the state of alertness over that period:
Mobile, sitting alert, drowsy, asleep, sleep-like state. The parameters studied were the time to torpor (TA) passed between injection and the first stage of sleep, the duration of the first sleep (TS) and the total sedation time over the period (Tsed), expressed in minutes and as a % of the period (Sed).
To compare the results of tests carried out at different dates, the extension of the duration of the first sleep TS compared with the test controls was recorded.

For `CCCc1ncc2n1CCc1c-2n(C)c2ccc(OC)cc12.CS(=O)(=O)O` [Example 8, 8-methoxy-11-methyl-3-propyl-5,6-dihydro-imidazo[5,1-a]-β-carboline methane sulfonate], where the note is “Dose: 1 mg/kg”, the “Sed (sedation time as % of the period)” value turned out to be 42.2%; the “TA (time to torpor between injection and first stage of sleep)” value was found to be 16 min; the “TS (duration of the first sleep)” value turned out to be 21.5 min; the “Tsed (total sedation time over the period)” value stood at 38 min. Besides, for the setting “Dose: 1 mg/kg”, the “TS (mins) Placebo diff'ce” value was 21 min. Under “Dose: 3 mg/kg”, the “Sed (sedation time as % of the period)” value worked out at 60%; the “TA (time to torpor between injection and first stage of sleep)” value amounted to 8.5 min; the “TS (duration of the first sleep)” value stood at 33 min; the “Tsed (total sedation time over the period)” value is 54 min. The “TS (mins) Placebo diff'ce” value (Dose: 3 mg/kg) amounted to 32.7 min. Further, for the setting “Dose: 10 mg/kg”, the “Sed (sedation time as % of the period)” value worked out at 76.1%; the “TA (time to torpor between injection and first stage of sleep)” value turned out to be 5.5 min; the “TS (duration of the first sleep)” value is 41 min; the “Tsed (total sedation time over the period)” value came to 68.5 min. Also, under “Dose: 10 mg/kg”, the “TS (mins) Placebo diff'ce” value is 40.7 min.

With `CS(=O)(=O)O.Cc1ncc2n1CCc1c-2n(C)c2ccc(O)cc12` [Example 10, 8-hydroxy-3,11-dimethyl-5,6-dihydroimidazo-[5,1-a]-β-carboline methane sulfonate], where the note is “Dose: 1 mg/kg”, the “Sed (sedation time as % of the period)” value came to 42.2%; the “TA (time to torpor between injection and first stage of sleep)” value turned out to be 15 min; the “TS (duration of the first sleep)” value was determined as 5 min; the “Tsed (total sedation time over the period)” value came out at 38 min. In addition, the “TS (mins) Placebo diff'ce” value (Dose: 1 mg/kg) was determined as 4.7 min. Besides, under “Dose: 3 mg/kg”, the “Sed (sedation time as % of the period)” value worked out at 12.2%; the “TA (time to torpor between injection and first stage of sleep)” value came to 30 min; the “TS (duration of the first sleep)” value is 1 min; the “Tsed (total sedation time over the period)” value came out at 11 min. Besides, the “TS (mins) Placebo diff'ce” value (Dose: 3 mg/kg) turned out to be 0.7 min. In addition, under “Dose: 10 mg/kg”, the “Sed (sedation time as % of the period)” value was determined as 30%; the “TA (time to torpor between injection and first stage of sleep)” value stood at 11.5 min; the “TS (duration of the first sleep)” value turned out to be 12.5 min; the “Tsed (total sedation time over the period)” value was 27 min. Also, where the note is “Dose: 10 mg/kg”, the “TS (mins) Placebo diff'ce” value was found to be 12 min.

Regarding `COc1ccc2[nH]c3c(c2c1)CCn1c-3cnc1-c1ccccc1` [Example 14], under “Dose: 1 mg/kg”, the “Sed (sedation time as % of the period)” value is given as 63.5%; the “TA (time to torpor between injection and first stage of sleep)” value stood at 7 min; the “TS (duration of the first sleep)” value was 35.5 min; the “Tsed (total sedation time over the period)” value stood at 62.865 min. Further, the “TS (mins) Placebo diff'ce” value (Dose: 1 mg/kg) amounted to 32 min. Besides, for the setting “Dose: 3 mg/kg”, the “Sed (sedation time as % of the period)” value worked out at 68%; the “TA (time to torpor between injection and first stage of sleep)” value came out at 15 min; the “TS (duration of the first sleep)” value came out at 34 min; the “Tsed (total sedation time over the period)” value turned out to be 61.2 min. The “TS (mins) Placebo diff'ce” value (Dose: 3 mg/kg) is 31.5 min. In addition, for the setting “Dose: 10 mg/kg”, the “Sed (sedation time as % of the period)” value is 70%; the “TA (time to torpor between injection and first stage of sleep)” value was 7 min; the “TS (duration of the first sleep)” value worked out at 28 min; the “Tsed (total sedation time over the period)” value was determined as 63 min. Also, the “TS (mins) Placebo diff'ce” value (Dose: 10 mg/kg) stood at 25.5 min.

Source of the values: US7291627B2, “Dihydroimidazo[5.1-a]-beta-carboline derivatives, method for their preparation, and their application as a drug” (MACEF, priority 2001, dated 2007).
